According to patent US9365494B2, “Process for synthesis of amino-methyl tetralin derivatives” (Roche Palo Alto LLC, priority 2008, dated 2016):

Key:
[1] = target: T1, recombinant human 5-HT6 receptor (Homo sapiens, UniProt P50406); assay: Radioligand binding studies, 5-HT6 ligand affinity by competing for binding of [3H]LSD; conditions: [3H]LSD competition; membranes of HEK293 cells stably expressing the receptor; pH 7.4, 37° C., 75 min; duplicate determinations; read-out: pKi for 5-HT6 (converted)
T1 construct: expressed in transfected cells; membranes)
T1 sequence (P50406 whole entry): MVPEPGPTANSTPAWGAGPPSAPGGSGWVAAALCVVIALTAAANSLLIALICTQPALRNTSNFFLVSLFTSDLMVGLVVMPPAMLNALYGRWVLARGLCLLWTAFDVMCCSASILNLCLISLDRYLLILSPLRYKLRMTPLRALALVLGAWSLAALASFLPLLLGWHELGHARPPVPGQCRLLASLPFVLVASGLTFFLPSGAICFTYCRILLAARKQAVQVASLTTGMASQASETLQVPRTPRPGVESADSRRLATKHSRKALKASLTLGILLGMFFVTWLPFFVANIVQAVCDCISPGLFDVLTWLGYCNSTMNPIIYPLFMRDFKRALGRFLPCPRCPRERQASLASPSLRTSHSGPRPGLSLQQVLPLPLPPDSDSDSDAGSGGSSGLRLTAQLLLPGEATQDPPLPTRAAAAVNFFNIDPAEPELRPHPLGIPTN
Description: The binding activity of compounds of this invention in vitro was determined as follows. Duplicate determinations of 5-HT6 ligand affinity were made by competing for binding of [^3H]LSD in cell membranes derived from HEK293 cells stably expressing recombinant human 5-HT6 receptor. Duplicate determinations of 5-HT2A ligand affinity were made by competing for binding of [^3H]Ketanserin (3-(2-(4-(4-fluorobenzoyl)piperidinol)ethyl)-2,4(1H,3H)-quinazolinedione) in cell membranes derived from CHO-K1 cells stably expressing recombinant human 5-HT2A receptor. Membranes were prepared from HEK 293 cell lines by the method described by Monsma et al., Molecular Pharmacology, Vol. 43 pp. 320-327 (1993), and from CHO-K^1 cell lines as described by Bonhaus et al., Br J. Pharmacol. June; 115(4):622-8 (1995).
For estimation of affinity at the 5-HT6 receptor, all determinations were made in assay buffer containing 50 mM Tris-HCl, 10 mM MgSO4, 0.5 mM EDTA, 1 mM ascorbic acid, pH 7.4 at 37° C., in a 250 microliter reaction volume. For estimation of affinity at the 5-HT2A receptor all determinations were made in assay buffer containing 50 mM Tris-HCl, 5 mM ascorbic acid, 4 mM CaCl2, pH 7.4 at 32° C., in a 250 microliter reaction volume.
Assay tubes containing [^3H] LSD or [^3H]Ketanserin (5 nM), competing ligand, and membrane were incubated in a shaking water bath for 75 min. at 37° C. (for 5-HT6) or 60 min. at 32° C. (for 5-HT2A), filtered onto Packard GF-B plates (pre-soaked with 0.3% PEI) using a Packard 96 well cell harvester and washed 3 times in ice cold 50 mM Tris-HCl. Bound [^3H] LSD or [^3H]Ketanserin were determined as radioactive counts per minute using Packard TopCount.
Displacement of [^3H]LSD or [^3H]Ketanserin from the binding sites was quantified by fitting concentration-binding data to a 4-parameter logistic equation:
[formula] where Hill is the Hill slope, [ligand] is the concentration of competing radioligand and IC50 is the concentration of radioligand producing half-maximal specific binding of radioligand. […]

Row | melting point [°C] | Ki [1] [nM] | SMILES
1 | 131.9 to 132.6 |  | NC(=O)[C@@H]1CCCc2cc(Sc3cccc(F)c3)ccc21 [Example 6, (R)-6-(3-Fluoro-phenylsulfanyl)-1,2,3,4-tetrahydro-naphthalene-1-carboxylic acid amide]
2 | 152.5 to 153.8 | 0.178 | CC(=O)NC[C@@H]1CCCc2cc(S(=O)(=O)c3ccccc3)cc(F)c21 [N-((R)-6-Benzenesulfonyl-8-fluoro-1,2,3,4-tetrahydro-naphthalen-1-ylmethyl)-acetamide]
3 |  | 0.1 | NC(=O)NC[C@@H]1CCCc2cc(S(=O)(=O)c3cccc(F)c3)ccc21 [[(R)-6-(3-Fluoro-phenylsulfonyl)-1,2,3,4-tetrahydro-naphthalen-1-ylmethyl]-urea]
4 | 193.5 to 194.4 | 0.158 | NC(=O)NC[C@@H]1CCCc2cc(S(=O)(=O)c3cccc(F)c3)cc(F)c21 [[(R)-8-Fluoro-6-(3-fluoro-benzenesulfonyl)-1,2,3,4-tetrahydro-naphthalen-1-ylmethyl]-urea]
